Laboratory results taken from US6632809B2, “Gyrase inhibitors and uses thereof” (Vertex Pharmaceuticals Incorporated, priority 2000, dated 2003).
Converted amounts (≈) assume the structure as drawn.

Assays:
[1] = biological target: DNA gyrase (374 kDa Gyr A2B2 subunit from Staphylococcus aureus) (Staphylococcus aureus, UniProt P0A0K8); assay: Gyrase ATPase Assay; assay type: biochemical; settings: 10 μM concentration, ATPase assay at 30° C., 0.9 mM ATP, average of duplicate values; for inhibition at 10 µM: read-out: Gyrase Inhibitory Activity (percent inhibition)
Procedure: The ATP hydrolysis activity of DNA gyrase was measure by coupling the production of ADP through pyruvate kinase/lactate dehydrogenase to the oxidation of NADH. This method has been described previously (Tamura and Gellert, 1990, J. Biol. Chem., 265, 21342).
ATPase assays are carried out at 30° C. in buffered solutions containing 100 mM TRIS pH 7.6, 1.5 mM MgCl2, 50 mM KCl. The coupling system contains (final concentrations) 2.5 mM phosphoenol pyruvate, 200 μM nicotinamide adenine dinucleotide (NADH), 1 mM DTT, […], and 10 ug/ml lactate dehydrogenase. 40 nanomolar enzyme (374 kDa Gyr A2B2 subunit from Staphylococcus aureus) and a DMSO solution of the inhibitor to a final concentration of 4% are added and the reaction mixture is allowed to incubate for 10 minutes at 30° C. The reaction is then started by the addition of ATP to a final concentration of 0.9 mM and the rate of NADH disappearance at 340 nanometers is measured over the course of 10 minutes. The percent inhibition values are determined from rate versus concentration profiles and are reported as the average of duplicate values.
The compound numbers correspond to the compound numbers in Table 1. Compounds having an activity designated as “A” provided a percent inhibition value below 50 percent; compounds having an activity designated as “B” provided a percent inhibition value between 50 and 75 percent; and compounds having an activity designated as “C” provided a percent inhibition value greater than 75 percent.

[2] = system: test bacteria; assay: Susceptibility Testing in Liquid Media (MIC assay); assay type: cell-based; settings: broth dilution, MHB, 35° C. overnight (16 to 20 hr), organism not given; for MIC: read-out: MIC (minimal inhibitory concentration) activity level
Procedure: Susceptibility Testing in Liquid Media
Compounds of this invention were also tested for antimicrobial activity by susceptibility testing in liquid media. Such assays were performed within the guidelines of the latest NCCLS document governing such practices: “M7-A5 Methods for dilution Antimicrobial Susceptibility Tests for Bacteria that Grow Aerobically; Approved Standard—Fifth Edition (2000)”. Other publications such as “Antibiotics in Laboratory Medicine” (Edited by V. Lorian, Publishers Williams and Wilkins, 1996) provide essential practical techniques in laboratory antibiotic testing. Essentially, several discrete bacterial colonies (3 to 7) from a freshly streaked plate were transferred to an appropriate rich broth medium such as MHB, supplemented where appropriate for the more fastidious organisms. This was grown overnight to high density followed by a 1 or 2-thousand-fold dilution to give an inoculation density of between 5×10^5 and 5×10^6 CFU per mL. Alternatively, the freshly picked colonies can be incubated at 37° C. for about 4 to 8 hrs until the culture equals or exceeds a turbidity of a 0.5 McFarland standard (approximately 1.5×10^8 cells per mL) and diluted to give the same CFU per mL as above. In a more convenient method, the inoculum was prepared using a commercially available mechanical device (the BBL PROMPT System) that involves touching five colonies directly with a wand, containing crosshatch grooves at its bottom, followed by suspension of the bacteria in an appropriate volume of saline. Dilution to the appropriate inoculum cell density was made from this cell suspension. The broth used for testing consists of MHB supplemented with 50 mg per L of Ca^2+ and 25 mg per L of Mg^2+. Standard dilution panels of control antibiotics were made and stored as in the NCCLS standard M7-A5, the dilution range typically being in the 128 μg per mL to 0.015 μg per mL (by 2-fold serial dilution). The test compounds were dissolved and diluted fresh for experimentation on the same day; the same or similar ranges of concentration as above being used. The test compounds and controls were dispensed into a multiwell plate and test bacteria added such that the final inoculation was approximately 5×10^4 CFU per well and the final volume was 100 μL. The plates were incubated at 35° C. overnight (16 to 20 hr) and checked by eye for turbidity or quantitated with a multiwell plate reader. […] Such determinations were also compared to the appropriate tables contained in the above two publications to ensure that the range of antibacterial activity is within the acceptable range for this standardized assay.
The compound numbers correspond to the compound numbers in Table 1.

Chain of DNA gyrase (374 kDa Gyr A2B2 subunit from Staphylococcus aureus) (P0A0K8 whole entry): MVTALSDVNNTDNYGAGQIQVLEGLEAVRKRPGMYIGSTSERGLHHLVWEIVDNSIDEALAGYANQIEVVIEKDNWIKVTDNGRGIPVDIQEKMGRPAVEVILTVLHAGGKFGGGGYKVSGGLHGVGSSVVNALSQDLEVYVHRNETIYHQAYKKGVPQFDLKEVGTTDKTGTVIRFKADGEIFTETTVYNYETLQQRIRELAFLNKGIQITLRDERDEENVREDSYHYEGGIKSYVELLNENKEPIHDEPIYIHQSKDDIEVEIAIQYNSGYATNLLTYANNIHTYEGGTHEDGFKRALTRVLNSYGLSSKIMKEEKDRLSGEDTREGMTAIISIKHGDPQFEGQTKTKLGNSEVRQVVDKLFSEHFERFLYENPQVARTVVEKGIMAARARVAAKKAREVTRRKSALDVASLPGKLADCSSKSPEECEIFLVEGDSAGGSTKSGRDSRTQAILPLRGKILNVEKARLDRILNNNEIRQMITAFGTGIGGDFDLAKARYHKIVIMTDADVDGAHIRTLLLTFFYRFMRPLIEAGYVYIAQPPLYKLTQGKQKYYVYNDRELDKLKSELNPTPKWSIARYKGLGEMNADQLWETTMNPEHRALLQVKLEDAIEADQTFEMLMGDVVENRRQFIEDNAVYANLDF
Chain of DNA gyrase (374 kDa Gyr A2B2 subunit from Staphylococcus aureus) (P20831 whole entry, further chain): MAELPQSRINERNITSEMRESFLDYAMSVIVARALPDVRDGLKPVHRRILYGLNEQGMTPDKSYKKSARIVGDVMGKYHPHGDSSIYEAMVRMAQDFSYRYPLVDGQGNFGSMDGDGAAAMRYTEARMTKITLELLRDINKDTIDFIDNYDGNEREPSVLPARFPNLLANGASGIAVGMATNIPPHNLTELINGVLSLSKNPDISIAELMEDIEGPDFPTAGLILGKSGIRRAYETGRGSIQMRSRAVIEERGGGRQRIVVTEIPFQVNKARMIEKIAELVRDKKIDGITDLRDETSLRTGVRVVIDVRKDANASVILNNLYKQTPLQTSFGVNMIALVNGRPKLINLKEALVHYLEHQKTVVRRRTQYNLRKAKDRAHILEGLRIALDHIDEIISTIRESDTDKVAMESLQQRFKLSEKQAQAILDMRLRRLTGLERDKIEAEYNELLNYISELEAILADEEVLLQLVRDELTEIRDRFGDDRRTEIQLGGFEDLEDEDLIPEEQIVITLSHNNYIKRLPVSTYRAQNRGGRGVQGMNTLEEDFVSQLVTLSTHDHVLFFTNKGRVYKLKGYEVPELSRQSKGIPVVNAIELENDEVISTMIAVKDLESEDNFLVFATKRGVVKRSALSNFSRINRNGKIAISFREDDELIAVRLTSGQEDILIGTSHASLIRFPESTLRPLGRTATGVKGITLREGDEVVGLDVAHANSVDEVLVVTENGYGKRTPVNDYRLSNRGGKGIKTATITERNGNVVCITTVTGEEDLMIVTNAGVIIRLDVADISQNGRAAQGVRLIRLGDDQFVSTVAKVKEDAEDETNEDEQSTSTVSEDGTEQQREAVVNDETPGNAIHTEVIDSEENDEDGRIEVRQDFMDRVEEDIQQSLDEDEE

| Structure (SMILES) | inhibition at 10 µM [1] | MIC [2] | MIC (minimal inhibitory concentration) activity level [2] | Gyrase Inhibitory Activity (percent inhibition) [1] |
| --- | --- | --- | --- | --- |
| CCNC(=O)Nc1nc2cc(-c3ccc(N4CCCCC4)nc3)ccc2[nH]1 [Ia-175] | > 75% | > 40 µg/mL | – | – |
| CCNC(=O)Nc1nc2nc(-n3cnc(C(=O)O)c3)ccc2[nH]1 [Ia-185] | > 75% | > 40 µg/mL | – | – |
| CCNC(=O)Nc1nc2cc(-c3nnco3)ccc2[nH]1 [Ia-151] | > 75% | > 40 µg/mL | – | – |
| CSc1ncc(-c2ccc3[nH]c(NC(=O)NC4CCCC4)nc3c2)cn1 [Ia-117] | < 50% | > 40 µg/mL | – | – |
| CCNC(=O)Nc1nc2cc(-c3ccc(CNS(C)(=O)=O)nc3)ccc2[nH]1 [Ia-154] | > 75% | > 40 µg/mL | – | – |
| CCNC(=O)Nc1nc2cc(-c3ccc(CNC(C)=O)cc3)ccc2[nH]1 [Ia-139] | > 75% | > 40 µg/mL | – | – |
| CCNC(=O)Nc1nc2cc(-c3cccc(F)c3F)ccc2[nH]1 [Ia-152] | > 75% | 10 to 40 µg/mL (≈ 31.6 to 126 µM) | – | – |
| CCNC(=O)Nc1nc2cc(-c3cccnc3)c(N3CCCC3)cc2[nH]1 [Ia-180] | > 75% | 10 to 40 µg/mL (≈ 28.5 to 114 µM) | – | – |
| CCNC(=O)Nc1nc2nc(-n3cnc(C(=O)OC)c3)ccc2[nH]1 [Ia-184] | 50 to 75% | > 40 µg/mL | – | – |
| CCCNC(=O)Nc1nc2cc(-c3cccnc3)ccc2[nH]1 [Ia-119] | > 75% | > 40 µg/mL | – | – |
| CCNC(=O)Nc1nc2cc(-c3cccnc3)cc(O)c2[nH]1 [Ia-167] | > 75% | – | C (provided an MIC of greater than 40 μg/mL) | – |
| CCNC(=O)Nc1nc2cc(-c3ccc(CN)cc3)ccc2[nH]1 [Ia-137] | > 75% | > 40 µg/mL | – | – |
| CCNC(=O)Nc1nc2cc(-c3ccc(CNC(C)=O)nc3)ccc2[nH]1 [Ia-145] | > 75% | 10 to 40 µg/mL (≈ 28.4 to 114 µM) | – | – |
| CCNC(=O)Nc1nc2cc(-c3cnc(NC(C)COC)nc3)c(OC)cc2[nH]1 (stereo not drawn) [Ia-146] | > 75% | < 10 µg/mL | – | – |
| CCNC(=O)Nc1nc2cc(-n3cnc(C(=O)OC)c3)ccc2[nH]1 [Ia-156, 1-[2-(3-Ethyl-ureido)-3H-benzoimidazol-5-yl]-1H-imiazole-4-carboxylic acid methyl ester] | > 75% | 10 to 40 µg/mL (≈ 30.5 to 122 µM) | – | – |
| CCCCNC(=O)c1cn(-c2ccc3[nH]c(NC(=O)NCC)nc3c2)cn1 [Ia-186] | > 75% | < 10 µg/mL | – | – |
| CCNC(=O)Nc1nc2cc(-n3cc(C(=O)O)cn3)ccc2[nH]1 [Ia-162] | > 75% | > 40 µg/mL | – | – |
| CCNC(=O)Nc1nc2cc(-c3cccnc3)c(N3CCCCC3)cc2[nH]1 [Ia-178] | > 75% | < 10 µg/mL | – | – |
| CCNC(=O)Nc1nc2cc(-c3cccc(=O)[nH]3)ccc2[nH]1 [Ia-158] | > 75% | > 40 µg/mL | – | – |
| C=CCCCOc1ccc(-c2ccc3[nH]c(NC(=O)NCC)nc3c2)cn1 [Ia-182] | > 75% | > 40 µg/mL | – | – |
| CCNC(=O)Nc1nc2cc(-c3cccnc3)c(OC)cc2[nH]1 [Ia-42] | > 75% | 10 to 40 µg/mL (≈ 32.1 to 128 µM) | – | – |

| Structure (SMILES) | inhibition at 10 µM [1] | MIC [2] | MIC (minimal inhibitory concentration) activity level [2] | Gyrase Inhibitory Activity (percent inhibition) [1] |
| --- | --- | --- | --- | --- |
| CCNC(=O)Nc1nc2nc(-n3cnc(C(=O)NC4CC4)c3)ccc2[nH]1 [Ia-187] | > 75% | 10 to 40 µg/mL (≈ 28.2 to 113 µM) | – | – |
| CCNC(=S)Nc1nc2cc(-c3ccccc3)ccc2[nH]1 [Ia-90] | – | < 10 µg/mL | – | C (provided a percent inhibition value greater than 75 percent) |
| CCNC(=O)Nc1nc2cc(-n3cnc(C(=O)N4CCOCC4)c3)ccc2[nH]1 [Ia-170] | > 75% | > 40 µg/mL | – | – |
| CC(C)CNC(=O)Nc1nc2cc(-c3ccc(F)nc3)ccc2[nH]1 [Ia-159] | < 50% | > 40 µg/mL | – | – |
| CCNC(=O)Nc1nc2cc(-c3cnc(NC(C)COC)nc3)cc(C)c2[nH]1 (stereo not drawn) [Ia-141] | > 75% | < 10 µg/mL | – | – |
| CCNC(=O)Nc1nc2cc(-c3cnc(NCc4cccnc4)nc3)ccc2[nH]1 [Ia-98] | > 75% | 10 to 40 µg/mL (≈ 25.7 to 103 µM) | – | – |
| CCNC(=O)Nc1nc2cc(-n3cnc(C(=O)O)c3)ccc2[nH]1 [Ia-157, 1-[2-(3-Ethyl-ureido)-3H-benzoimidazol-5-yl]-1H-imidazole-4-carboxylic acid] | > 75% | > 40 µg/mL | – | – |
| C=CCNC(=O)c1cn(-c2ccc3[nH]c(NC(=O)NCC)nc3c2)cn1 [Ia-188] | > 75% | < 10 µg/mL | – | – |
| CCNC(=O)Nc1nc2cc(-c3cnc(SC)nc3)ccc2[nH]1 [Ia-92] | > 75% | < 10 µg/mL | – | – |
| CCNC(=O)Nc1nc2cc(-n3cc(C(=O)NCc4cccnc4)cn3)ccc2[nH]1 [Ia-174] | > 75% | > 40 µg/mL | – | – |
| CCNC(=O)Nc1nc2cc(-c3cnc(OC(C)COC)nc3)c(OC)cc2[nH]1 (stereo not drawn) [Ia-140] | > 75% | < 10 µg/mL | – | – |
| CCNC(=O)Nc1nc2cc(-c3ccccc3O)ccc2[nH]1 [Ia-165] | > 75% | 10 to 40 µg/mL (≈ 33.7 to 135 µM) | – | – |
| CCNC(=O)Nc1nc2cc(-n3ccc(=O)c(OCc4ccccc4)c3C)ccc2[nH]1 [Ia-160] | > 75% | > 40 µg/mL | – | – |
| CCNC(=O)Nc1nc2cc(-c3occc(=O)c3O)ccc2[nH]1 [Ia-181] | 50 to 75% | > 40 µg/mL | – | – |
| CCNC(=O)Nc1nc2cc(-c3cccnc3)c(C)c(C)c2[nH]1 [Ia-142] | > 75% | < 10 µg/mL | – | – |
| CCNC(=O)Nc1nc2cc(-c3ccc(CNC(=O)OC(C)(C)C)nc3)ccc2[nH]1 [Ia-148] | > 75% | 10 to 40 µg/mL (≈ 24.4 to 97.4 µM) | – | – |
| CCOC(=O)Nc1nc2cc(-c3cncc(NC(C)=O)c3)ccc2[nH]1 [Ia-122] | > 75% | > 40 µg/mL | – | – |
| CCNC(=O)Nc1nc2cc(-c3ccc(CN)nc3)ccc2[nH]1 [Ia-144] | > 75% | 10 to 40 µg/mL (≈ 32.2 to 129 µM) | – | – |
| CCNC(=O)Nc1nc2cc(-c3cccnc3)c(OCCOC)c(C)c2[nH]1 [Ia-149] | > 75% | > 40 µg/mL | – | – |
| CCNC(=O)Nc1nc2cc(-n3ccc(=O)c(O)c3C)ccc2[nH]1 [Ia-161] | < 50% | > 40 µg/mL | – | – |
| CCNC(=O)Nc1nc2cc(-c3cccnc3)c(OC)c(F)c2[nH]1 [Ia-183] | 50 to 75% | > 40 µg/mL | – | – |
